Data on 28 compounds can be found in patent US20130096067A1, “DROSOPHILA TUMOR STEM CELL MODEL AND USES THEREOF” (priority 2011, published 2013).

The test system of test [1] is Raf-1^gof intestinal tumors. Kind of test: Luciferase screen of FDA-approved (NCI) drugs in 96-well plates, flies with Raf-1^gof intestinal tumors. For Avg (3 + 6): test concentration or dose not given here. For Log2 (fold): test concentration or dose not given here. Type of test: in vivo, Drosophila.
The subject of test [2] is Raf-1^gof intestinal tumors. To be noted: for Fold: Table 3 summary of hits, Screen ICCB, luciferase relative to DMSO, fed three consecutive days in vials; for Log2 (fold) (luciferase activity, log2 of the fold difference relative to DMSO controls) / Fold (luciferase activity, fold difference relative to DMSO controls): screen of 480 ICCB compounds in vials, compounds fed to flies with one-day old Raf-1^gof tumors, assessed three days later, esg-Gal4 luciferase; for Fold (luciferase activity, fold difference relative to DMSO controls): averaged from multiple wells.

The mark [3] stands for this setting: average of Day 3 and Day 6 fold.
The mark [4] stands for this setting: log2 of the Day 3 fold difference in luciferase relative to DMSO controls.
The mark [5] stands for this setting: luciferase activity relative to DMSO controls, single dose of drug for three days, 96-well plates.
The mark [6] stands for this setting: six-day protocol: single dose for three days, then another dose for three more days.

Where a name gives a salt, the structure may show the parent alone. Numbered stars: 1 amine (or outer) side, 2 acyl side, 3 side chain; on linkers, the order of the positions; unused ones are H or OH. Bridge positions count the residues as written; N and C are the ends. Square brackets hold non-standard residues; d marks the D form. Peptide text beside a SMILES is read from it. I, II: the chains in the order shown. Actinocin(9to1) = Cc1c2oc3c(C)ccc(C(=O)[*:1])c3nc-2c(C(=O)[*:2])c(N)c1=O; NMeV = CN[C@H](C(=O)O)C(C)C; Sar = CNCC(=O)O
Throughout, for Fold (luciferase activity, fold difference relative to DMSO controls): test concentration or dose not given here.
Throughout, for Log2 (fold) (luciferase activity, log2 of the fold difference relative to DMSO controls): test concentration or dose not given here.

Turning to `Cc1c2oc3c(C)ccc(C(=O)N[C@@H]4C(=O)N[C@H](C(C)C)C(=O)N5CCC[C@H]5C(=O)N(C)CC(=O)N(C)[C@@H](C(C)C)C(=O)O[C@@H]4C)c3nc-2c(C(=O)N[C@@H]2C(=O)N[C@H](C(C)C)C(=O)N3CCC[C@H]3C(=O)N(C)CC(=O)N(C)[C@@H](C(C)C)C(=O)O[C@@H]2C)c(N)c1=O` [Dactinomycin] (I: T[dV]P[Sar][NMeV] / II: T[dV]P[Sar][NMeV]; ester I:1-I:C, II:1-II:C; linker I:N-II:N via Actinocin(9to1)), the “Avg (3 + 6)” value in test [1] (setting [3]) stood at 0.119 fold. Besides, the “Log2 (fold)” value in test [1] (setting [4]) is given as −3.068. Further, the “Day 3 Fold” value in test [1] (setting [5]) amounted to 0.119 fold. Also, in test [2], the Fold was 0.438 fold; the “Log2 (fold) (luciferase activity, log2 of the fold difference relative to DMSO controls)” value is on record as −1.192; the “Fold (luciferase activity, fold difference relative to DMSO controls)” value turned out to be 0.438.
With `COc1cc([C@@H]2c3cc4c(cc3[C@@H](O[C@@H]3O[C@@H]5CO[C@@H](C)O[C@H]5[C@H](O)[C@H]3O)[C@H]3COC(=O)[C@H]23)OCO4)cc(OC)c1O` [Etoposide], the “Avg (3 + 6)” value in test [1] (setting [3]) worked out at 0.817 fold. Besides, the “Log2 (fold)” value in test [1] (setting [4]) was −0.134. Moreover, the “Day 3 Fold” value in test [1] (setting [5]) was determined as 0.911 fold. In test [1] (setting [6]), the “Day 6 Fold” value is given as 0.722 fold. Besides, in test [2], the “Log2 (fold) (luciferase activity, log2 of the fold difference relative to DMSO controls)” value was −0.532 and the “Fold (luciferase activity, fold difference relative to DMSO controls)” value stood at 0.691.
Consider `CO[C@@]12[C@H](COC(N)=O)C3=C(C(=O)C(C)=C(N)C3=O)N1C[C@@H]1N[C@@H]12` [Mitomycin C], for which the “Avg (3 + 6)” value in test [1] (setting [3]) was found to be 0.204 fold. For the same compound, in test [1] (po, 72 h), the “Day 3 Fold” value is 0.279 fold and the “Log2 (fold)” value is recorded as −1.842. In addition, in test [2], the Fold was determined as 0.470 fold; the “Log2 (fold) (luciferase activity, log2 of the fold difference relative to DMSO controls)” value is reported as −1.088; the “Fold (luciferase activity, fold difference relative to DMSO controls)” value is reported as 0.470.
`O=C1[O][Pt]2([NH][C@@H]3CCCC[C@H]3[NH]2)[O]C1=O` [Oxaliplatin]: the “Avg (3 + 6)” value in test [1] (setting [3]) turned out to be 1.082 fold. For the same compound, the “Log2 (fold)” value in test [1] (setting [4]) is recorded as 0.296. The “Day 3 Fold” value in test [1] (setting [5]) came out at 1.227 fold. Further, the “Day 6 Fold” value in test [1] (setting [6]) stood at 0.936 fold.
Regarding `Nc1nc2[nH]cc(CCc3ccc(C(=O)N[C@@H](CCC(=O)O)C(=O)O)cc3)c2c(=O)[nH]1` [Pemetrexed], the “Avg (3 + 6)” value in test [1] (setting [3]) came to 0.365 fold. Besides, the “Log2 (fold)” value in test [1] (setting [4]) was −0.783. In test [1] (setting [5]), the “Day 3 Fold” value was determined as 0.581 fold. The “Day 6 Fold” value in test [1] (setting [6]) turned out to be 0.149 fold.
As for `OC[C@H]1O[C@@H](n2cnc3c2NC=NC[C@H]3O)C[C@@H]1O` [Pentostatin], in test [1] (setting [3]), the “Avg (3 + 6)” value was 0.951 fold. Further, in test [1] (po, 72 h), the “Day 3 Fold” value was determined as 1.232 fold and the “Log2 (fold)” value turned out to be 0.301.
With `O=C(CCBr)N1CCN(C(=O)CCBr)CC1` [Pipobroman], in test [1] (setting [3]), the “Avg (3 + 6)” value was found to be 0.853 fold. Further, in test [1] (setting [4]), the “Log2 (fold)” value was −0.011. The “Day 3 Fold” value in test [1] (setting [5]) is given as 0.992 fold. Besides, the “Day 6 Fold” value in test [1] (setting [6]) was 0.714 fold.
In the case of `CNNCc1ccc(C(=O)NC(C)C)cc1` [Procarbazine], the “Avg (3 + 6)” value in test [1] (setting [3]) worked out at 1.119 fold. Besides, in test [1] (setting [4]), the “Log2 (fold)” value came to 0.470. Moreover, in test [1] (setting [5]), the “Day 3 Fold” value is given as 1.385 fold. The “Day 6 Fold” value in test [1] (setting [6]) was determined as 0.854 fold.
The like results for `O=C(c1ccc(OCCN2CCCCC2)cc1)c1c(-c2ccc(O)cc2)sc2cc(O)ccc12` [Raloxifene HCl] were, in that order, 1.100 fold, 0.337, 1.263 fold and 0.936 fold.
`CNC(=O)c1cc(Oc2ccc(NC(=O)Nc3ccc(Cl)c(C(F)(F)F)c3)cc2)ccn1` [Sorafenib]: in test [1] (in vivo), the “Avg (3 + 6)” value is reported as 1.046 fold, the “Day 3 Fold” value is 0.752 fold, the “Day 6 Fold” value came out at 1.339 fold and the “Log2 (fold)” value is −0.410.
For the compound `CN(N=O)C(=O)N[C@@H](C=O)[C@@H](O)[C@H](O)[C@H](O)CO` [Streptozocin], in test [1] (in vivo), the “Avg (3 + 6)” value came out at 0.943 fold, the “Day 3 Fold” value was 1.030 fold, the “Day 6 Fold” value came to 0.856 fold and the “Log2 (fold)” value was 0.043.
As for `CCN(CC)CCNC(=O)c1c(C)[nH]c(/C=C2\C(=O)Nc3ccc(F)cc32)c1C` [Sunitinib], in test [1] (setting [3]), the “Avg (3 + 6)” value is on record as 0.816 fold. The “Log2 (fold)” value in test [1] (setting [4]) was −0.243. The “Day 3 Fold” value in test [1] (setting [5]) amounted to 0.845 fold. The “Day 6 Fold” value in test [1] (setting [6]) turned out to be 0.788 fold.
On the same counts, the results for `CC/C(=C(\c1ccccc1)c1ccc(OCCN(C)C)cc1)c1ccccc1` [Tamoxifen citrate] are 0.919 fold, −0.046, 0.968 fold and 0.869 fold.
On the same counts, the results for `Cn1nnc2c(C(N)=O)ncn2c1=O` [Temozolomide] are 1.138 fold, −0.032, 0.978 fold and 1.298 fold.
For `COc1cc([C@@H]2c3cc4c(cc3[C@@H](O[C@@H]3O[C@@H]5CO[C@@H](c6cccs6)O[C@H]5[C@H](O)[C@H]3O)[C@H]3COC(=O)[C@H]23)OCO4)cc(OC)c1O` [Teniposide], the “Avg (3 + 6)” value in test [1] (setting [3]) is 0.634 fold. The “Log2 (fold)” value in test [1] (setting [4]) was −0.679. Moreover, the “Day 3 Fold” value in test [1] (setting [5]) was found to be 0.625 fold. In addition, the “Day 6 Fold” value in test [1] (setting [6]) was found to be 0.642 fold.
Regarding `Nc1nc2nc[nH]c2c(=S)[nH]1` [Thioguanine], in test [1] (setting [3]), the “Avg (3 + 6)” value is 1.392 fold. Moreover, the “Log2 (fold)” value in test [1] (setting [4]) is recorded as 0.495. Also, in test [1] (setting [5]), the “Day 3 Fold” value came to 1.409 fold. Further, the “Day 6 Fold” value in test [1] (setting [6]) is given as 1.375 fold.
With `S=P(N1CC1)(N1CC1)N1CC1` [Thiotepa], in test [1] (in vivo), the “Avg (3 + 6)” value is recorded as 0.344 fold, the “Day 3 Fold” value is 0.353 fold, the “Day 6 Fold” value came to 0.335 fold and the “Log2 (fold)” value is −1.501.
On to `CC[C@@]1(O)C(=O)OCc2c1cc1n(c2=O)Cc2cc3c(CN(C)C)c(O)ccc3nc2-1` [Topotecan HCl], for which, in test [1] (setting [3]), the “Avg (3 + 6)” value stood at 0.233 fold. The “Log2 (fold)” value in test [1] (setting [4]) is reported as −1.600. Further, the “Day 3 Fold” value in test [1] (setting [5]) worked out at 0.330 fold. In test [1] (setting [6]), the “Day 6 Fold” value is reported as 0.137 fold.
Take `CC1=C(/C=C/C(C)=C/C=C/C(C)=C/C(=O)O)C(C)(C)CCC1` [Tretinoin]: the “Avg (3 + 6)” value in test [1] (setting [3]) came to 0.871 fold. The “Log2 (fold)” value in test [1] (setting [4]) is on record as −0.040. In addition, in test [1] (setting [5]), the “Day 3 Fold” value stood at 0.972 fold. Besides, the “Day 6 Fold” value in test [1] (setting [6]) came to 0.769 fold.
As to `C1CN1c1nc(N2CC2)nc(N2CC2)n1` [Triethylenemelamine (TEM), Triethylenemelamine], in test [1] (in vivo), the “Avg (3 + 6)” value was 0.301 fold, the “Day 3 Fold” value worked out at 0.349 fold, the “Day 6 Fold” value came out at 0.253 fold and the “Log2 (fold)” value is listed as −1.519.
The like results for `Oc1ncc(N(CCCl)CCCl)c(O)n1` [Uracil mustard] were, in that order, 0.869 fold, 0.966 fold, 0.773 fold and −0.050.
With `CCCCC(=O)OCC(=O)[C@]1(O)Cc2c(O)c3c(c(O)c2[C@@H](O[C@H]2C[C@H](NC(=O)C(F)(F)F)[C@H](O)[C@H](C)O2)C1)C(=O)c1c(OC)cccc1C3=O` [Valrubicin], in test [1] (setting [3]), the “Avg (3 + 6)” value is recorded as 0.778 fold. The “Log2 (fold)” value in test [1] (setting [4]) is recorded as −0.190. For the same compound, the “Day 3 Fold” value in test [1] (setting [5]) was 0.876 fold. The “Day 6 Fold” value in test [1] (setting [6]) stood at 0.679 fold.
The like results for `CC[C@]1(O)C[C@H]2CN(CCc3c([nH]c4ccccc34)[C@@](C(=O)OC)(c3cc4c(cc3OC)N(C=O)[C@H]3[C@@](O)(C(=O)OC)[C@H](OC(C)=O)[C@]5(CC)C=CCN6CC[C@]43[C@@H]65)C2)C1` [Vincristine sulfate] were, in that order, 0.314 fold, −2.100, 0.233 fold and 0.394 fold.
On the same counts, the results for `CCC1=C[C@@H]2CN(C1)Cc1c([nH]c3ccccc13)[C@@](C(=O)OC)(c1cc3c(cc1OC)N(C)[C@H]1[C@@](O)(C(=O)OC)[C@H](OC(C)=O)[C@]4(CC)C=CCN5CC[C@]31[C@@H]54)C2` [Vinorelbine tartrate] are 0.761 fold, −0.190, 0.877 fold and 0.645 fold.
On the same counts, the results for `O=C(CCCCCCC(=O)Nc1ccccc1)NO` [Vorinostat] are 0.749 fold, −0.703, 0.614 fold and 0.883 fold.
In the case of `O=P(O)(O)C(O)(Cn1ccnc1)P(=O)(O)O` [Zolendronic acid], in test [1] (setting [3]), the “Avg (3 + 6)” value is 0.999 fold. The “Log2 (fold)” value in test [1] (setting [4]) was −0.115. For the same compound, in test [1] (setting [5]), the “Day 3 Fold” value stood at 0.923 fold. The “Day 6 Fold” value in test [1] (setting [6]) turned out to be 1.076 fold.
Turning to Arsenic trioxide, the “Avg (3 + 6)” value in test [1] (setting [3]) stood at 0.981 fold. Also, the “Log2 (fold)” value in test [1] (setting [4]) is −0.074. The “Day 3 Fold” value in test [1] (setting [5]) is on record as 0.950 fold. Further, the “Day 6 Fold” value in test [1] (setting [6]) is listed as 1.012 fold.
In the case of Estramustine disodium phosphate, in test [1] (in vivo), the “Avg (3 + 6)” value is 0.922 fold, the “Day 3 Fold” value is 0.971 fold, the “Day 6 Fold” value came to 0.872 fold and the “Log2 (fold)” value was −0.042.
